Source: patent US20130171158A1, “TREATMENT OF ABNORMALITIES OF GLUCOSE METABOLISM WITH AN ANTAGONIST OF INHIBITOR OF DIFFERENTIATION 1” (GARVAN INSTITUTE OF MEDICAL RESEARCH, priority 2010, published 2013)

Test system: MIN6 cells
Assay: Insulin secretion assay in MIN6 cells treated with palmitate with or without Cannabidiol
Type: cell-based, mouse
Conditions: 10 μM Cannabidiol, 0.4 mM palmitate coupled to 0.92% BSA for 48 h; 2.8 or 25 mM glucose for 1 h
Method: FIG. 11 is a graphical represenatation showing that an inhibitor of Id1 expression (Cannabidiol) protects MIN6 beta cells against lipid (palmitate)-induced insulin secretory dysfunction. Cells were treated with either 0.92% BSA or 0.92% BSA coupled to 0.4 mM palmitate for 48 h, in combination with the absence or presence of 10 μM Cannabidiol. Insulin secretion assay was performed. After 30-min preincubation in KRB medium containing 2.8 mM glucose, the cells were incubated in KRB medium containing either 2.8 mM glucose (clear bars) or 25 mM glucose (dark bars) for 1 h. Medium was taken to determine levels of insulin secretion. Insulin secretion expressed as fold change compared with Control cells incubated with 25 mM glucose. Results are means±SE. The MIN6 cell line was also used to examine the effects of inhibition of Id1 on lipid-induced insulin secretory dysfunction. MIN6 cells were grown in DMEM. Cells were seeded at 2×10^5 cells per well in 24-well plates. Cells were treated with either 0.92% BSA or 0.92% BSA coupled to 0.4 mM palmitate for 48 h, in combination with the absence or presence of 10 μM Cannabidiol. After chronic incubation, cells were washed in KRB buffer containing 2.8 mM glucose, and then they were preincubated for a further 30 min in 0.5 ml of the same medium at 37° C. […]

SMILES: C=C(C)[C@@H]1CCC(C)=C[C@H]1c1c(O)cc(CCCCC)cc1O [Cannabidiol]
- protection against palmitate-induced insulin secretory dysfunction: protected the cells against palmitate-induced insulin secretory dysfunction
